Columns and labels:
[1] = tested on: human umbilical vein endothelial cells (HUVEC); test: Inhibition of HUVEC net structure (tube) formation on ECM/Matrigel; type: cell-based; details: group without drug = 100%, read-out: 50% inhibiting concentration (IC50) for inhibiting tube formation
Description: The lyophilized powder was dissolved in an appropriate solvent and an in vitro anti-angiogenesis was performed thereto. The ability of the extract for inhibiting net structure formation of human umbilical vein endothelial cells (HUVEC) in extracellular matrix (ECM) or growth factor reduced Matrigel was analyzed, and the forming level of the tube structure thereof was integrated to be used as an indicator for quantification.
Furthermore, by using Matrigel (BD, Cat. No. 356231) as a matrix and observing the state of human umbilical vein endothelial cells (HUVECs) constructing a net structure on the matrix, state of JC-5 (yatein) inhibiting the formation of HUVEC net structure was analyzed. […] The total length of the net structure was calculated through NIS element image analysis software (Nikon; Agent: Lin Trading Co., Ltd. Taiwan), wherein by using the total length of a net structure formed from a group without a drug addition as 100%, the state of JC-5 inhibiting the formation of HUVEC net structure was analyzed.
By using Matrigel (BD, Cat. No. 356231) as a matrix and observing the state of human umbilical vein endothelial cells (HUVECs) constructing a net structure on the matrix, the states of the crude extract (CBT-143-S) and the fractional extract (CBT-143-S-F6F7) inhibiting the formation of HUVEC net structure were analyzed. […]

[2] = tested on: laser-induced CNV; test: Laser-induced choroidal neovascularization (CNV) assay; type: in vivo, brown Norway rats; details: 1 μg/2 ul in DMSO per eye, fluorescein angiography
Description: Male rats (brown Norway rats, purchased from BioLASCO Co., Taiwan) were used. CNV lesions were induced in rat eyes by laser photocoagulation. Briefly, after the rats were anesthetized, their pupils were dilated with 1% tropicamide. A piece of 18×24 mm^2 standard cover glass served as a contact lens for application of photocoagulation. Argon laser irradiation was delivered through a slit lamp. Laser parameters were set as follows: spot size of 50 μm; power of 120 mW; and exposure duration of 0.1 second. An attempt was made to break Bruch's membrane, as clinically evidenced by central bubble formation, with or without intraretinal or choroidal hemorrhage. Four to six lesions were created between the major retinal vessels in each fundus. One day prior to laser treatment, animals received bilateral intravitreal injection of 2 ul JC-5 (1 ug/eye, N=6) or 2 ul vehicle (DMSO, N=6). Fourteen days later, a self-retaining eye speculum was placed in the eye to facilitate administration. […] Rats were analyzed under general anesthesia after dilation of the pupil and subsequent intraperitoneal injection of 0.5 ml of 2.5% fluorescein sodium (Alcon, […], Germany). […] For quantitative analysis of fluorescein leakage, the area of fluorescein leakage, determined as area of hyperfluorescence in which no normal retinal blood vessels were observed, was measured for each burn using ImageJ software (NIH, USA).

[3] = tested on: bFGF-induced corneal neovascularization; test: Rat corneal neovascularization (corneal pocket) assay; type: in vivo, Sprague Dawley rats; details: pellet with 60 ng of bFGF plus 1 ug JC-5, day 7
Description: Pellets made of the hydron polymer (polyHEME) and a test drug or DMSO were implanted on the corneal surface of rats, and vascular formation thereof was observed.
A hydron polymer (polyHEME) was dissolved in absolute ethanol (12% w/v) in a rotator at 37° C. overnight, and then stored at room temperature before pellet making. Each pellet for the corneal pocket assay contained 60 ng of bFGF, or 1 ug JC-5 and 20 ug of sucralfate in 3 uL of casting gel, which was constituted as a 50:50 (vol/vol) mixture of hydron gel and factor-sucralfate-PBS. The casting gel was promptly pipetted onto an autoclaved, sterilized 20×20-mm piece of nylon mesh with an approximate pore size of 2×2 mm. The pellets were prepared the day before corneal surgery in a laminar flow hood under sterile conditions. Subsequently, the fibers of the mesh were pulled apart, and uniformly sized pellets of 2×2×0.4 mm^3 were selected for implantation. All procedures were performed in sterile conditions. Such pellets can be stored frozen at −20° C. for several days without loss of bioactivity. […] The eyes were exposed, and the maximum vessel length (VL) of the neovascularization zone, extending from the base of the limbal vascular plexus toward the pellet, was measured. […] The contiguous circumferential zone of neovascularization (CN) was measured in clock hours with a 360° reticule (where 30° of arc equals 1 clock hour).

[4] = tested on: growth factor (FGFb+VEGF)-induced angiogenesis; test: Matrigel plugs assay, in vivo growth factor-induced angiogenesis; design: species or system BALB/c mice; details: orally administered every day 30 mg/kg/day, 14 days
[5] = tested on: PBMCs; test: Toxicity test for normal cells, PBMCs (Alamarblue cell viability assay); type: cell-based; details: PBMC, 72 hours incubation, read-out: IC50 of a test drug for PBMCs
Description: In order to investigate whether the inhibiting effects mentioned above of the crude extract (CBT-143-S) and the fractional extract (CBT-143-S-F6F7) are due to the toxicity thereof or not, cell viability assay for normal cells, PBMCs, and growth inhibition assays for HUVECs were performed to the crude extract (CBT-143-S) and the fractional extract (CBT-143-S-F6F7), and a commercial clinical drug, sorafenib, were used for comparison as a reference.
Alamarblue is a plant dye that is usually blue. The dye decomposes during cell proliferation and reduces from blue to pink, and a rise in O.D. at 570 nm can be determined. Conversely, the more dead cells there are, the lower the O.D. value is determined to be.
PBMC cells (1×10^5 cells/well) were inoculated in a 96-well plate, and the crude extract (CBT-143-S) and the fractional extract (CBT-143-S-F6F7) samples, etc. with different concentrations (300, 100, 30, 10, 3 and 1 μg/mL) were added to the plate. After incubating for 72 hours, Alamarblue was added to the plate and incubated at 37° C. for 24 hours, and then the O.D. at 570 nm/600 nm thereof was determined by an ELISA reader. After that, the obtained O.D. values were substituted into the formal calculation as follows: […]

[6] = tested on: Hep-3B conditional medium (CM)-induced angiogenesis; test: Matrigel plugs assay, in vivo Hep-3B conditional medium-induced angiogenesis; design: species or system BALB/c mice; details: orally administered every day 30 mg/kg/day, 14 days
Description: Through a subcutaneous injection to BALB/c mice to form Matrigel plugs, an evaluation was made of whether a test substance was capable of inhibiting angiogenesis induced by vascular endothelial growth factor or Hep-3B conditional medium (CM).
Matrigel is extracted from the Engelbreth-Holm-Swarm (EHS) mouse sarcoma and contains rich extracellular matrix proteins and contains various factors need by vascular growth. In a condition of room temperature and 37° C., Matrigel is capable of polymerize as a solid gel from, and can provide a better growth environment for vascular endothelial cells.
Matrigel and vascular endothelial growth factors (FGFb+VEGF) or Hep-3B conditional medium (CM) were mixed, and then a test substance was added thereto and mixed. […]
(c) Hemoglobin content in Matrigel was quantified by a QuantiChrom™ Hemoglobin Assay Kit (DIHB-250) to evaluate the amount of neo-blood vessels in Matrigel.
After subcutaneous injection to BALB/c mice for 14 days, the Matrigel plugs in the subcutaneous tissue of the mouse was taken out and equal amount of dispase was added therein to form a mixture and reacted at 37° C. for 16 hours to dissolve intercellular substance gel. […] After the supernatant was reacted with the reagent for 5 minutes, the optical density (O.D.) at 400 nm therefrom was determined. […]

| SMILES | IC50 [1] | CNV lesions areas compared to DMSO-treated vehicles ([2]; intravitreal, day 7 and day 14) | fluorescent dye uptake and extent of CNV [2] | neovascular response in implanted cornea [3] | hemoglobin concentration of the Matrigel plug [4] | IC50 [5] | hemoglobin concentration of the Matrigel plug [6] |
| --- | --- | --- | --- | --- | --- | --- | --- |
| COc1cc(C[C@H]2C(=O)OC[C@@H]2Cc2ccc3c(c2)OCO3)cc(OC)c1OC [JC-5, yatein] | 0.335 µM | significantly decreased | less | inhibited |  |  |  |
| CNC(=O)c1cc(Oc2ccc(NC(=O)Nc3ccc(Cl)c(C(F)(F)F)c3)cc2)ccn1 [Sorafenib, sorafenib] |  |  |  |  | 27.09 ± 5.88 mg/dL | 10.8 ± 0.95 µM | 25.05 ± 17.59 mg/dL |

Reference: patent US9682062B2, “Pharmaceutical compositions and method for inhibiting angiogenesis” (Industrial Technology Research Institute, priority 2012, dated 2017)
